Key:
[1] = target: T1, human OCT1 (Homo sapiens, UniProt O15245); assay: Cellular uptake by HEK293 cells overexpressing human OCT1 (wildtype); settings: human versus mouse OCT1, stably transfected HEK293
T1 sequence (O15245 1-554): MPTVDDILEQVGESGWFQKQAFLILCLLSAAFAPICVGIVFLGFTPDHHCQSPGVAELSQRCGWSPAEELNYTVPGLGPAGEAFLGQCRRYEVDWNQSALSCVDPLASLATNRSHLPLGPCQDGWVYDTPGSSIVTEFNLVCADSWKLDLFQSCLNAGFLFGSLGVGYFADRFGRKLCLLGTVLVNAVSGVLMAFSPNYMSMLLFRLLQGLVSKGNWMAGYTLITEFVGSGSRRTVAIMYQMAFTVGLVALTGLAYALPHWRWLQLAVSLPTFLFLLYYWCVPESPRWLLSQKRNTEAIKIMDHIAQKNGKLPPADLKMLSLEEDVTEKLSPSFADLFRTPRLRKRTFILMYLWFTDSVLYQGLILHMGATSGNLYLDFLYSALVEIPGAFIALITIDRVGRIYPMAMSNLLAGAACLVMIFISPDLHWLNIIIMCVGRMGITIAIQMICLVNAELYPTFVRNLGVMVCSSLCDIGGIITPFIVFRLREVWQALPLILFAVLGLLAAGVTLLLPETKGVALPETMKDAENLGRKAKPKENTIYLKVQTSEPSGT
Method: Generation and characterization of these cell lines has been described in detail before ([34], [48], [49]). Cells were cultured in Dulbecco’s Modified Eagle’s Medium supplemented with 10% fetal bovine serum, 100 U/ml penicillin, and 100 μg/ml streptomycin at 37 °C and 5% CO2 and were passaged twice a week.
At 48 h prior to the experiment, 6 × 10^5 cells were seeded per well in 12-well plates. When using transiently transfected cells, 5 × 10^5 T-REx-293 cells (Life Technologies) were seeded per well in 12-well plates 72 h prior to the experiment, and they were transfected 24 h later as described previously. Twelve-well plates were precoated with poly-D-lysine.
(§1) Cellular uptake experiments were performed at 37 °C and pH 7.4 using HBSS supplemented with 10 mM Hepes (in the following referred to as HBSS+). Cells were washed with 1 ml prewarmed (37 °C) HBSS+, and the uptake was initiated by adding 400 μl of prewarmed HBSS+ containing the substrate. Uptake was allowed for exactly 2 min and afterward stopped by adding 2 ml ice-cold HBSS+. Cells were washed twice with 2 ml ice-cold HBSS+ and lysed with 80% acetonitrile supplemented with internal standard, 0.1 N NaOH/0.1% SDS, or radioimmunoprecipitation buffer for LC–MS/MS, liquid scintillation counting, or fluorescence spectroscopy detection, respectively. Intracellular substrate concentrations were measured as described in the following and were then normalized to the amount of total protein in the samples as measured using the bicinchoninic acid assay ([51]).
For LC–MS/MS quantification of intracellular substrate concentrations, the cell lysate was centrifuged at 16,000g for 15 min, and 350 μl of supernatant was evaporated to dryness under nitrogen flow at 40 °C. The sample was reconstituted with 200 μl 0.1% formic acid, and between 2 and 30 μl were injected into the LC–MS/MS system (Table S1).
An API4000 QTRAP tandem mass spectrometer with ESI interface (AB SCIEX) was used, coupled to a Shimadzu Nexera X2 UHPLC system with LC 30AD pumps and SiL 30AC autosampler (Shimadzu).
Intracellular concentrations of radioactively labeled substrates MPP^+ and TEA^+ were quantified using liquid scintillation counting. To this end, 400 μl cell lysate was transferred into a 20 ml scintillation vial, 9 ml Aquasafe 500 Plus liquid scintillator (both Zinsser Analytics) was added, and the sample was measured in the Scintillation Counter LS6500 (Beckman Coulter).
For both analyses, SPSS Statistics, version 28 (SPSS, Inc, IBM) was used.

[2] = human, estimated based on clinical data, ref [9]; cited from earlier work
[3] = target: T2, human OCT1 Cys36Tyr (Homo sapiens, UniProt O15245, C36Y); assay: Uptake by HEK293 cells overexpressing Cys36Tyr human OCT1; type: cell-based; settings: stably transfected HEK293, increasing concentrations, 2 min
T2 construct: expressed in transfected cells
Method: (§2) Human–mouse chimeric OCT1 constructs were generated using the overlap extension method ([50]) and have been characterized before ([34]). […] All constructs were validated by capillary sequencing of the complete open reading frame of OCT1 before transfection into HEK293 cells.
(§3) For transient transfection of OCT1 constructs into HEK293 cells for uptake experiments, 5 × 10^5 T-REx-293 cells (Life Technologies) were seeded per well in 12-well plates precoated with poly-D-lysine. […] At 48 h later, transfection efficacy was assessed microscopically by visualizing the GFP signal of the cotransfected GFP vector, and the cells were subsequently used for uptake experiments. […]
as §1, with “Cells were washed with 1 ml prewarmed (37 °C) HBSS+, and the uptake was initiated by adding 400 μl of prewarmed HBSS+ containing the substrate. Uptake was allowed for exactly 2 min and afterward stopped by adding 2 ml ice-cold HBSS+.” left out, “([51]). […]” for “([51]).”

[4] = target: mouse Oct1 Tyr36Cys (Mus musculus, UniProt O08966, Y36C); settings: stably transfected HEK293, increasing concentrations, 2 min
Method: as §2, §3
as §1, with “Cells were washed with 1 ml prewarmed (37 °C) HBSS+, and the uptake was initiated by adding 400 μl of prewarmed HBSS+ containing the substrate. Uptake was allowed for exactly 2 min and afterward stopped by adding 2 ml ice-cold HBSS+.” left out, “([51]). […]” for “([51]).”

mouse Oct1 Tyr36Cys, sequence (O08966 whole entry Y36C): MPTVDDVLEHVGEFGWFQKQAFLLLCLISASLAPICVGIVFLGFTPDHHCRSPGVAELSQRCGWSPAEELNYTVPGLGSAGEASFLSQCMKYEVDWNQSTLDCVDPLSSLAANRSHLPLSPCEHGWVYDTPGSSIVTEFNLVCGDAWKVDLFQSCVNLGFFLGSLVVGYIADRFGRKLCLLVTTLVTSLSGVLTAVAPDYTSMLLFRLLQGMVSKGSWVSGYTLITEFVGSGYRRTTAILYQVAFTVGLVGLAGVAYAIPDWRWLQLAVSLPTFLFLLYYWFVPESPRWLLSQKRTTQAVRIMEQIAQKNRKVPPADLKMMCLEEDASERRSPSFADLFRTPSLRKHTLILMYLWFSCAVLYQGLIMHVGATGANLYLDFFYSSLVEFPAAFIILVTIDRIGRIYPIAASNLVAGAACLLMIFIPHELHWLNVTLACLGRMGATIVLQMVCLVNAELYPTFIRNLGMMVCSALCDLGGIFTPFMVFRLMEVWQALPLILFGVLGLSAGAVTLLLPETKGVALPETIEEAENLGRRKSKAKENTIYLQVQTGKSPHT

SMILES | fold higher affinity (KM) of human than of mouse OCT1 [1] [fold] | clinically relevant (plasma) concentration [2] [nM] | effect of Cys36Tyr in human OCT1 on affinity (KM) [3] | fold lower affinity (KM) of human OCT1 than mouse Oct1 (higher affinity of mouse Oct1) [1] | effect of Tyr36Cys in mouse OCT1 on affinity (KM) [4]
CC(Cc1ccc(O)cc1)NCC(O)c1cc(O)cc(O)c1 (centres unmarked) [Fenoterol] | 8.1 | 2.18 | – | – | –
CC(C)(C)NCC(O)c1cc(O)cc(O)c1 (centres unmarked) [Terbutaline] | – | – | did not affect | more than sixfold higher affinity of mouse Oct1 | did not affect

Source: publication PMC9130538, “Amino acids in transmembrane helix 1 confer major functional differences between human and mouse orthologs of the polyspecific membrane transporter OCT1” (The Journal of Biological Chemistry, 2022)
